{
  "source": "patent US9801901B2",
  "about": "“Alginate oligomers for use in overcoming multidrug resistance in bacteria” (priority 2009, dated 2017)",
  "key": {"[1]": {"tested_on": "Pseudomonas aeruginosa MDR R22 from China (V1)", "test": "MIC assay, CAMHB with alginate oligomer, no visible growth", "assay_type": "cell-based", "conditions": "Pseudomonas aeruginosa, Table 4, V1 MDR (China), read-out: MIC", "from_the_text": "(§1) The study described in Example 1 was repeated with the following strains of bacteria and antibiotics as detailed in Tables 4, 5 and 6."}, "[2]": {"tested_on": "Pseudomonas aeruginosa CFA 24-1, clinical mucoid strain (R80)", "test": "MIC assay, CAMHB with alginate oligomer, no visible growth", "assay_type": "cell-based", "conditions": "Pseudomonas aeruginosa, Table 4, R80 non MDR (muc.), read-out: MIC"}, "[3]": {"tested_on": "V10 (Egypt) Acinetobacter lwoffii", "test": "MIC assay, CAMHB with alginate oligomer, no visible growth", "assay_type": "cell-based", "conditions": "Table 5, V10 MDR Acin. lwoff"}, "[4]": {"tested_on": "Staphylococcus aureus (MRSA) U50", "test": "MIC-assay, Mueller-Hinton broth with G-block alginate, 384-well, OD600 (Table 12)", "assay_type": "cell-based", "conditions": "MRSA 1040s, U50 MDR", "from_the_text": "(§2) Minimum inhibitory concentration (MICs) of different antibiotics for strains of Streptococcus oralis and Staphylococcus aureus (MRSA) displaying MDR phenotypes in the presence of varying concentrations of OligoCF-5/20 (0-10%). (MIC values are expressed in μg ml^−1)."}, "Streptococcus oralis": {"tested_on": "Streptococcus oralis", "test": "MIC-assay, Mueller-Hinton broth with G-block alginate, 384-well, OD600 (Table 12)", "assay_type": "cell-based", "conditions": "Streptococcus oralis (5610, V17) MDR", "from_the_text": "as §2"}, "[5]": {"tested_on": "Acinetobacter baumannii (MDR ACB, Libya, V4)", "test": "MIC-assay, Mueller-Hinton broth with G-block alginate, 384-well, OD600"}, "[6]": {"tested_on": "V9 (Egypt) Acinetobacter baumannii", "test": "MIC assay, CAMHB with alginate oligomer, no visible growth", "assay_type": "cell-based", "conditions": "Table 5, V9 MDR Acin. baum"}, "V11 5702 (Wales) E. coli": {"tested_on": "V11 5702 (Wales) E. coli", "test": "MIC assay, CAMHB with alginate oligomer, no visible growth", "assay_type": "cell-based", "conditions": "Escherichia coli; Table 5; V11 MDR E.coli; OligoCF-5/20 0G; read-out: MIC"}, "[7]": {"tested_on": "strains of Klebsiella pneumoniae displaying MDR phenotypes", "test": "MIC-assay, Mueller-Hinton broth with G-block alginate, 384-well, OD600 (Table 10)", "assay_type": "cell-based", "conditions": "Klebsiella pneumoniae (K3, India, V8) MDR", "from_the_text": "Minimum inhibitory concentration (MICs) of different antibiotics for strains of Klebsiella pneumoniae displaying MDR phenotypes in the presence of varying concentrations of OligoCF-5/20 (0-10%). (MIC values are expressed in μg ml^−1)."}, "[8]": {"tested_on": "Acinetobacter baumannii MDR ACB from Libya (V4)", "test": "MIC assay, CAMHB with alginate oligomer, no visible growth", "assay_type": "cell-based", "conditions": "Acinetobacter baumannii, Table 4, V4 MDR (Libya), read-out: MIC", "from_the_text": "as §1\nThe study described in Example 1 was repeated with the following strains of Acinetobacter baumannii, antibiotics and M-block alginate oligomer in place of OligoG CF-5/20 as detailed in Table 7. The M-block oligomer is 100% M with a DPn of 15 to 18,"}, "[9]": {"tested_on": "V23 1322 Burkholderia cepacia", "test": "MIC assay, CAMHB with alginate oligomer, no visible growth", "assay_type": "cell-based"}, "MDR Providencia stuartii": {"tested_on": "MDR Providencia stuartii", "test": "MIC-assay, Mueller-Hinton broth with G-block alginate, 384-well, OD600 (Table 11)", "assay_type": "cell-based", "conditions": "Providencia stuartii (IR57 India, V7) MDR", "from_the_text": "Minimum inhibitory concentration (MICs) of different antibiotics for strains of E. coli and Providencia stuartii displaying MDR phenotypes in the presence of varying concentrations of OligoCF-5/20 (0-10%). (MIC values are expressed in μg ml^−1)."}, "[10]": {"tested_on": "Burkholderia cepacia (1322, V23)", "test": "MIC-assay, Mueller-Hinton broth with G-block alginate, 384-well, OD600", "conditions": "Table 8, G-block (OligoCF-5/20) 10%"}, "[11]": {"conditions": "G-block (OligoCF-5/20) 0%, read-out: MIC"}, "[12]": {"conditions": "G-block (OligoCF-5/20) 2%, read-out: MIC"}},
  "note": "Read-outs that look alike come from different tables or passages of the source. Marks after values point to notes of the source that are not given here.",
  "data": [
    {"compound": "CC[C@H]1OC(=O)[C@H](C)[C@@H](O[C@H]2C[C@@](C)(OC)[C@@H](O)[C@H](C)O2)[C@H](C)[C@@H](O[C@@H]2O[C@H](C)C[C@H](N(C)C)[C@H]2O)[C@](C)(O)C[C@@H](C)C(=O)[C@H](C)[C@@H](O)[C@]1(C)O", "note": "[Erythromycin]", "values": [
      {"measurement": "MIC", "setting": "[1]; OligoCF-5/20 0G", "value": 128, "unit": "mg/L"},
      {"measurement": "MIC", "setting": "[1]; OligoCF-5/20 +6% G", "value": 64, "unit": "mg/L"},
      {"measurement": "MIC", "setting": "[1]; OligoCF-5/20 +10% G", "value": 32, "unit": "mg/L"},
      {"measurement": "MIC", "setting": "[2]; OligoCF-5/20 0G", "value": 512, "unit": "mg/L"},
      {"measurement": "MIC", "setting": "[2]; OligoCF-5/20 +6% G", "value": 128, "unit": "mg/L"},
      {"measurement": "MIC", "setting": "[2]; OligoCF-5/20 +10% G", "value": 32, "unit": "mg/L"},
      {"measurement": "MIC", "setting": "[3]; Acinetobacter lwoffii, OligoCF-5/20 0G, read-out: MIC", "value": "< 0.5", "unit": "mg/L"},
      {"measurement": "MIC", "setting": "[3]; OligoCF-5/20 +2% G", "value": "<0.5", "unit": "mg/L"},
      {"measurement": "MIC", "setting": "[3]; OligoCF-5/20 +6% G", "value": "<0.5", "unit": "mg/L"},
      {"measurement": "MIC", "setting": "[3]; OligoCF-5/20 +10% G", "value": "<0.5", "unit": "mg/L"},
      {"measurement": "MIC", "setting": "[4]; [11]", "value": "> 1020", "unit": "mg/L"},
      {"measurement": "MIC", "setting": "[4]; [12]", "value": "> 1020", "unit": "mg/L"},
      {"measurement": "MIC", "setting": "[4]; G-block (OligoCF-5/20) 6%", "value": 1020, "unit": "mg/L"},
      {"measurement": "MIC", "setting": "[4]; G-block (OligoCF-5/20) 10%", "value": 512, "unit": "mg/L"},
      {"measurement": "MIC", "setting": "Streptococcus oralis; [11]", "value": 2, "unit": "mg/L"},
      {"measurement": "MIC", "setting": "Streptococcus oralis; [12]", "value": 16, "unit": "mg/L"},
      {"measurement": "MIC", "setting": "Streptococcus oralis; G-block (OligoCF-5/20) 6%", "value": 0.0312, "unit": "mg/L"},
      {"measurement": "MIC", "setting": "Streptococcus oralis; G-block (OligoCF-5/20) 10%", "value": 0.0625, "unit": "mg/L"},
      {"measurement": "MIC", "setting": "[5]; Table 9, G-block (OligoCF-5/20) 0%", "value": 32, "unit": "mg/L"},
      {"measurement": "MIC", "setting": "[5]; Table 9, G-block (OligoCF-5/20) 2%", "value": 8, "unit": "mg/L"},
      {"measurement": "MIC", "setting": "[5]; Table 9, G-block (OligoCF-5/20) 6%", "value": 4, "unit": "mg/L"},
      {"measurement": "MIC", "setting": "[5]; Table 9, G-block (OligoCF-5/20) 10%", "value": 2, "unit": "mg/L"},
      {"measurement": "MIC", "setting": "[6]; Acinetobacter baumannii, OligoCF-5/20 0G, read-out: MIC", "value": 8, "unit": "mg/L"},
      {"measurement": "MIC", "setting": "[6]; OligoCF-5/20 +2% G", "value": "4^† μg/ml"},
      {"measurement": "MIC", "setting": "[6]; OligoCF-5/20 +6% G", "value": "1^† μg/ml"},
      {"measurement": "MIC", "setting": "[6]; OligoCF-5/20 +10% G", "value": "<0.5^† μg/ml"},
      {"measurement": "MIC", "setting": "V11 5702 (Wales) E. coli", "value": 512, "unit": "mg/L"},
      {"measurement": "MIC", "setting": "[7]; G-block (OligoCF-5/20) 0%", "value": 128, "unit": "mg/L"},
      {"measurement": "MIC", "setting": "[7]; G-block (OligoCF-5/20) 2%", "value": 128, "unit": "mg/L"},
      {"measurement": "MIC", "setting": "[7]; G-block (OligoCF-5/20) 6%", "value": 128, "unit": "mg/L"},
      {"measurement": "MIC", "setting": "[7]; G-block (OligoCF-5/20) 10%", "value": 128, "unit": "mg/L"},
      {"measurement": "MIC", "setting": "[8]; OligoCF-5/20 0G", "value": 8, "unit": "mg/L"},
      {"measurement": "MIC", "setting": "[8]; OligoCF-5/20 +2% G", "value": 2, "unit": "mg/L"},
      {"measurement": "MIC", "setting": "[8]; OligoCF-5/20 +6% G", "value": "≤ 1", "unit": "mg/L"},
      {"measurement": "MIC", "setting": "[8]; OligoCF-5/20 +10% G", "value": "≤ 1", "unit": "mg/L"},
      {"measurement": "MIC", "setting": "[9]; Burkholderia cepacia, Table 5, V23 MDR Burk cep, OligoCF-5/20 0G, read-out: MIC", "value": 512, "unit": "mg/L"},
      {"measurement": "MIC", "setting": "[9]; Burkholderia cepacia, Table 6, V23, Experiment 1 (18-03-10), OligoCF-5/20 0G, read-out: MIC", "value": 512, "unit": "mg/L"},
      {"measurement": "MIC", "setting": "[9]; Burkholderia cepacia, Table 6, V23, Experiment 3 (19-03-10), OligoCF-5/20 0G, read-out: MIC", "value": "> 512", "unit": "mg/L"},
      {"measurement": "MIC", "setting": "[9]; Table 5, V23 MDR Burk cep, OligoCF-5/20 +10% G", "value": "16^† μg/ml"},
      {"measurement": "MIC", "setting": "[9]; Table 6, V23, Experiment 1 (18-03-10), OligoCF-5/20 +10% G", "value": "64^† μg/ml"},
      {"measurement": "MIC", "setting": "[9]; Table 6, V23, Experiment 2 (18-03-10), OligoCF-5/20 +6% G", "value": "64^† μg/ml"},
      {"measurement": "MIC", "setting": "[9]; Table 6, V23, Experiment 2 (18-03-10), OligoCF-5/20 +10% G", "value": "64^† μg/ml"},
      {"measurement": "MIC", "setting": "[9]; Table 6, V23, Experiment 3 (19-03-10), OligoCF-5/20 +6% G", "value": "64^† μg/ml"},
      {"measurement": "MIC", "setting": "[9]; Table 6, V23, Experiment 3 (19-03-10), OligoCF-5/20 +10% G", "value": "16^† μg/ml"},
      {"measurement": "MIC", "setting": "MDR Providencia stuartii; G-block (OligoCF-5/20) 0%", "value": 32, "unit": "mg/L"},
      {"measurement": "MIC", "setting": "MDR Providencia stuartii; G-block (OligoCF-5/20) 2%", "value": 16, "unit": "mg/L"},
      {"measurement": "MIC", "setting": "MDR Providencia stuartii; G-block (OligoCF-5/20) 6%", "value": 16, "unit": "mg/L"},
      {"measurement": "MIC", "setting": "MDR Providencia stuartii; G-block (OligoCF-5/20) 10%", "value": 16, "unit": "mg/L"},
      {"measurement": "MIC", "setting": "[10]", "value": 64, "unit": "mg/L"}
    ]}
  ]
}
